“Also recorded” adds a separate entry of the source.
Experiments:
OTC = target: T1, OTC (Homo sapiens, UniProt P00480); test: Two-dimensional thermal proteome profiling (CETSA) in crude cell extract; details: isocotoin 0.5-30 μM, 37-66.3 °C
T1 sequence (P00480 33-354): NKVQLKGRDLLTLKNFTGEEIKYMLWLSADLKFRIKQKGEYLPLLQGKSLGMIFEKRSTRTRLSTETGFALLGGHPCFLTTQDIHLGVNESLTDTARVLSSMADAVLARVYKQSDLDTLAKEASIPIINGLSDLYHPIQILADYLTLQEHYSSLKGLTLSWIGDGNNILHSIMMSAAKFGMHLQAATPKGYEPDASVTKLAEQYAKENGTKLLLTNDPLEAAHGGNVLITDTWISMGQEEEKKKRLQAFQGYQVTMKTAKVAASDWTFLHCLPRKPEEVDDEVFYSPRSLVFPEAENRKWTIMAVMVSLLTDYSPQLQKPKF

Sar55/Gluc (genotype 1) = test: Dose titration against Sar55/Gluc replicon
p6/Gluc[F470S] = test: Dose titration against mutant replicon p6/Gluc[F470S]
HEV = test: In vivo testing in HEV-infected human liver chimeric mice, viral RNA in stool and serum; details: 50 mg/kg daily intraperitoneally, 7 days
Huh7 cells = test: ATP-based cell viability assay (CellTiterGlo); details: Huh7 cells, day 4
Protocol: Measurement of Cytotoxicity by CellTiterGlo Assay. […] Readout was performed using a Berthold luminometer.

[1] = system: p6/BSR-2A-ZsGreen replicon
STOML2 = target: T2, STOML2 (Homo sapiens, UniProt Q9UJZ1); test: Two-dimensional thermal proteome profiling (CETSA) in crude cell extract; details: isocotoin 0.5-30 μM, 37-66.3 °C
T2 sequence (Q9UJZ1 29-356): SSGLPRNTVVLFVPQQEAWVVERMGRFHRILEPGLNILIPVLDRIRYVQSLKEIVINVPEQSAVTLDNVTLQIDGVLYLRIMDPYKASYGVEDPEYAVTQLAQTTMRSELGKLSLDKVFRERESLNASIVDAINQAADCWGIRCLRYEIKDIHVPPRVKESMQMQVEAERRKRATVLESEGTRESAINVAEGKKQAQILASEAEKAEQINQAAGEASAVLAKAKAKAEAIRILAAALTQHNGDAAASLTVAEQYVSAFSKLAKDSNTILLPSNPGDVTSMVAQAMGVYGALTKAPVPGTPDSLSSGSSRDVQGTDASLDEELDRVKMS

HSP90AB1 (Hsp90β) = HSP90AB1 (Hsp90β) (Homo sapiens, UniProt P08238); test: as above; details: isocotoin 0.5-30 μM, 37-66.3 °C
HSP90AB1 (Hsp90β), sequence (P08238 whole entry): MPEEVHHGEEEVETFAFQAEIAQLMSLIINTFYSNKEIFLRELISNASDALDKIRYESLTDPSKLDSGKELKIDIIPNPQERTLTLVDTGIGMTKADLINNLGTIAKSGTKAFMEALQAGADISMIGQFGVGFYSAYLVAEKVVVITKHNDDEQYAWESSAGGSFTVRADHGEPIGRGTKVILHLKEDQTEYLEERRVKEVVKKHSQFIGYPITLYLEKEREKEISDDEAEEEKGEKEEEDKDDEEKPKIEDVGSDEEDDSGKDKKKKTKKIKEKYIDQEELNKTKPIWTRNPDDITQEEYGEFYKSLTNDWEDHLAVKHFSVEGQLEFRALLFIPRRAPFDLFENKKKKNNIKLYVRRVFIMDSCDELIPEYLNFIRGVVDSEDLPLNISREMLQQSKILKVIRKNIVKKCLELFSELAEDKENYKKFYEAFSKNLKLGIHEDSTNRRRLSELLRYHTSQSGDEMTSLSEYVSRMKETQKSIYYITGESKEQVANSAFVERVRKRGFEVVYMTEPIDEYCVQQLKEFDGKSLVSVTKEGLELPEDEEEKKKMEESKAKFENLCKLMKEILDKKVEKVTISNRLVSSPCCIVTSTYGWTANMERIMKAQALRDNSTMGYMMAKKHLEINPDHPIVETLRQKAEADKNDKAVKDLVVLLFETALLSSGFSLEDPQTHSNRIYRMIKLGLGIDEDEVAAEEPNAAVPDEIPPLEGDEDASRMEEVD

[2] = system: TW6196E/Gluc (genotype 4); test: Dose titration against TW6196E/Gluc replicon; details: genotype 4, poor replicative capacity
[3] = system: p6/Gluc (HEVΔORF2/3[Gluc]) replicon, KernowC1p6 genotype 3; test: Dose titration against p6/Gluc replicon in Huh7 cells, Gaussia luciferase readout; format: cell-based, hepatitis E virus
Protocol: Gaussia luciferase assays.
Statistics—calculation of IC50. Half maximal inhibitory concentrations were calculated by graphing dose-titration data as nonlinear curve fits with three parameters using GraphPad Prism (v8.1.2).

Jc1(p7nsGluc2A) (HCV) = format: cell-based, hepatitis C virus; details: Gluc, RLU normalized to untreated
[4] = system: translation of T7-tagBFP-Gluc; test: Translation inhibition assay (T7-tagBFP-Gluc RNA in Huh7 cells); format: cell-based; details: 4 days
Excerpt: Generation of T7-tagBFP-Gluc. To make the T7-TagBFP-GLuc construct, SP6-TagBFP-2A-FLuc was used as a template and the primers PU-O-6099 and PU-O-6100 were designed to partially anneal immediately upstream and downstream of the SP6 promoter. The unbound portions of PU-O-6099 and PU-O-6100 contained the T7 promoter sequence. […] Next, PCR amplification of the T7-TagBFP-2A backbone was completed using the Q5® High-Fidelity DNA Polymerase and PU-O-6101 and PU-O-6102 as the primers. […] The Gluc insert was then ligated to the T7-TagBFP-2A backbone using the In-Fusion® HD Cloning Kit.
Translation Inhibition Assay. Huh7 cells were seeded at 6,250 cells per well in 96-well format. The cells were then transfected with 50 ng T7-TagBFP-Gluc in vitro transcribed RNA per well. Five hours post-transfection, transfection medium was changed to medium containing isocotoin, ribavirin, cycloheximide, or roclagamide at 6 or 7 different concentrations. DMSO concentration was kept constant in all the wells at 0.125%. For each drug dose, triplicate wells were tested. On day four post-transfection, a luciferase assay was performed on supernatant media to measure Gluc expression.

HSPA14 = target: T3, HSPA14 (Homo sapiens, UniProt Q0VDF9); test: Two-dimensional thermal proteome profiling (CETSA) in crude cell extract; details: isocotoin 0.5-30 μM, 37-66.3 °C
T3 sequence (Q0VDF9 1-509): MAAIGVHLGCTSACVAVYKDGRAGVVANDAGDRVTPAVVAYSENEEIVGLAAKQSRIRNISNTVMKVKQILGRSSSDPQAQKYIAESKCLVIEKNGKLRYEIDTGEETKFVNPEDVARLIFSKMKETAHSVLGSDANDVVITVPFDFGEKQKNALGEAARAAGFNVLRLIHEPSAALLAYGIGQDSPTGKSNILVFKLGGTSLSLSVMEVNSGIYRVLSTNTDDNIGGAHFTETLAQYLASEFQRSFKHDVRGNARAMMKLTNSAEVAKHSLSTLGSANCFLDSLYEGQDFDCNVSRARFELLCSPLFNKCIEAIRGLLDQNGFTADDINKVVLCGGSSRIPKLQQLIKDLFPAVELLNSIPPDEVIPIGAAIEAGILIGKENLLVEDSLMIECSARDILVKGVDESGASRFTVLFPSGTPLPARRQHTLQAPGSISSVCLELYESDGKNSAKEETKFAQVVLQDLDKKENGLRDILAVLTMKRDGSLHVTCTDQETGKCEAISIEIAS

[5] = system: YFV17D-Gluc-BSD-Ires (YFV17D); format: cell-based, yellow fever virus 17-D vaccine strain

COc1cc(O)cc(O)c1C(=O)c1ccccc1 [isocotoin, 4-benzoyl-5-methoxybenzene-1,3-diol]
soluble protein fraction of OTC (OTC): among hits showing the greatest increase in soluble protein fraction
inhibition of Sar55/Gluc replication, in words (Sar55/Gluc (genotype 1)): lower IC50 than ribavirin; also recorded: inhibits replication
sensitivity of p6/Gluc[F470S], in words (p6/Gluc[F470S]): higher sensitivity to isocotoin than to ribavirin
viral RNA levels in stool and serum pre- and post-treatment (HEV): not a clear decrease in viral levels; also recorded: did not result in a reduction in viral titers
doses at which cytotoxicity was displayed (Huh7 cells): ≥ 25 µM
doses up to which no cytotoxicity was displayed (Huh7 cells): up to 12.5 μM
toxicity to cells on passaging ([1]; 30 μM isocotoin dose): some toxicity
ZsGreen levels on passaging ([1]; 30 μM isocotoin, first few passages): sharp decrease in ZsGreen levels
soluble protein fraction of STOML2 (STOML2): among hits showing the greatest increase in soluble protein fraction
thermal stabilization / soluble protein fraction of HSP90AB1 (HSP90AB1 (Hsp90β)): thermal stabilization; also recorded: relatively modest, but identifiable increase
inhibition of TW6196E/Gluc replication, in words [2]: modest inhibitory effect; also recorded: inhibits replication
IC50 ([3]; Hepatitis E virus, Huh-7, 96 h): 6.1 µM
inhibition of p6/Gluc (HEV) replication, in words ([3]; Huh7 cells, supernatant Gluc): lower IC50 than ribavirin; also recorded: dose-dependent inhibitory effects; also recorded: dose-dependent inhibition; also recorded: more efficiently than ribavirin; also recorded: inhibits replication; also recorded: to a greater extent than ribavirin
inhibition of HCV replication, in words (Jc1(p7nsGluc2A) (HCV)): dose-dependent inhibitory effects; also recorded: to a greater extent than ribavirin
effect on translation / Gluc levels, in words [4]: did not lead to a significant decrease in Gluc levels; also recorded: do not inhibit translation
thermal shift of HSPA14 (HSPA14): did not produce a thermal shift
inhibition of YFV17D replication, in words [5]: dose-dependent inhibitory effects; also recorded: to a greater extent than ribavirin

Reference: patent US20220362276A1, “Small Molecule Inhibitors of Viral Replication” (The Trustees of Princeton University, priority 2019, published 2022)
